For series [1], the system named is A. castellanii genotype T4 (ATCC 50492) trophozoites. Nature of the series: Amoebicidal assay (Trypan blue exclusion, haemocytometer counting). The class given is cell-based, Acanthamoeba castellanii. Particulars: for Amoebicidal Activity Inhibition % ± SEM: 50 µM concentration, Supplementary Table S1; for amoebicidal effects / antiamoebic activity against A. castellanii: 50 µM, 24 h, 30 °C; for IC50: tested at 12.5, 25, 50 and 100 µM against A. castellanii. On the procedure:
A. castellanii genotype T4 (ATCC 50492) trophozoites were used in this study. The amoebae were axenically cultivated at 30 °C in T-75 cm^3 culture flask using a proteose-peptone yeast extract-glucose (PYG) broth culture. Upon confluency, amoeba cultured flask was placed on ice for 10 min followed by gently tapping to dislodge the adhered trophozoites. Next, culture was centrifuged at 3000× g for 5 min. The supernatant was discarded and the pellet was re-suspended in 1 mL of Roswell Park Memorial Institute (RPMI) media. Finally, amoebae were counted via haemocytometer microscopically and the desired initial inoculum (5 × 10^5) was adjusted and used in different assays. Different molecules were tested against A. castellanii to examine their antiamoebic effects as previously reported. Briefly, A. castellanii (5 × 10^5) were incubated with 50 µM of the tested compounds for 24 h at 30 °C with a final assays volume of 0.5 mL in a 24-well plate. For controls, amoebae cultured in RPMI alone and with 0.25% sodium dodecyl sulfate (SDS) was taken as negative and positive control, respectively. Finally, each well was stained with Trypan blue (0.1%) and viable amoebae trophozoites were enumerated by haemocytometer. In some trails, these compounds were tested at different concentrations (12.5, 25, 50 and 100 µM) to determine their 50% inhibitory concentration (IC50) against A. castellanii.

The test system of another series is HeLa cells. As to the kind of experiment: In vitro cytotoxicity, lactate dehydrogenase (LDH) assay. The class given is cell-based, human. The note with it: 50 µM, 24 h, LDH release. On the procedure: HeLa cells were obtained from the American Type Culture Collection (ATCC CCL-2) and grown at 37 °C with 5% CO2 and 95% humidity in RPMI supplemented with 10% fetal bovine serum (FBS), 1% minimum essential medium amino acids, 1% Penicillin-Streptomycin (Pen-Strep) and 1% L-glutamine. The media was removed aseptically, and cells were detached enzymatically using 2 mL of trypsin EDTA. Next, culture containing dislodged cells was centrifuged at 2500× g for 5 min. The cell pellet was resuspended in the above-mentioned media, subsequently added into 96-well plates and utilized in different assays. In vitro cytotoxic effects of the tested molecules were determined using Lactate dehydrogenase (LDH) assays against human cells. In brief, 50 µM concentration of the tested compounds were incubated with HeLa cells monolayer for 24 h at 37 °C with 5% CO2 in humidified conditions. After this incubation, 0.1% triton X-100 was added to the positive control wells and incubated the plate for 45 min at 37 °C. Then, an equal volume of cells supernatant containing liberated LDH enzyme was mixed with an equal volume of LDH kit reagents (Cytotoxicity Detection kit; Roche Diagnostics, Indianapolis, IN, USA). The positive and negative controls were cell monolayers treated with 0.1 percent Triton X-100 and in RPMI alone. The plate was subjected to multi-plate reader and absorbance was recorded at 490 nm. The percent cytotoxicity was calculated using given formula; % Cell cytotoxicity = sample value − negative control value/positive control value − negative control value × 100.
On the technique in general: LDH leaks from cells whose membrane has failed.

The next series relates to human cell lines. As to the kind of experiment: MTT assay (EC50/CC50 and MNTD90). The class given is cell-based. The note with it: for EC90: Maximum Non-Toxic Dose, read-out: MNTD/EC90; for CC50: 50% effective/cytotoxic concentration (CC50), tested at 12.5–100 µM. A general note: Tetrazolium assays rely on reduction of a dye to a coloured formazan, in cell work by metabolically active cells.

Series [2] concerns A. castellanii binding to HeLa cells. Nature of the series: Adhesion assay: amoebae binding to human cells. The note with it: amoebae pre-treated with 50 µM for 2 h; 60 min on HeLa monolayer. The class given is cell-based, Acanthamoeba castellanii. On the procedure:
Adhesion assays were performed to determine how the tested molecules affect the binding capability of amoebae to human cells. Firstly, A. castellanii (5 ×10^5) trophozoites were treated with 50 µM of the compounds in serum-free RPMI medium at 30 °C for 2 h. Next, pre-treated amoebae were centrifuged at 3000× g for 5 min and re-suspended the amoeba in 200 µL of RPMI medium. The total assay volume including pre-treated amoeba was transferred to a confluent HeLa cell monolayer cultured in 96-well plates. For control, amoebae trophozoites alone were added to HeLa cell monolayer. The plates were incubated for 60 min at 37 °C with 5% CO2 and 95% humidity and amoebae (unbound) were then counted by haemocytometer. Percent bound amoebae was calculated using the following formula: % amoebae (bound) = 100 − amoebae (unbound)(1)

Series [3] has as its system A. castellanii trophozoites. Nature of the series: Encystation assay. It is filed as cell-based, Acanthamoeba castellanii. Particulars: 50 µM, 16% glucose, 30 °C, 48–72 h; negative control 100%. On the procedure:
Encystation assays were performed to determine the effects of the tested compounds to prevent the differentiation of A. castellanii trophozoites into the cyst form and 50 µM of the tested compounds were utilized. Briefly, A. castellanii (1 × 10^6) trophozoites were incubated with these compounds with 16% filter-sterilized glucose (as encystation medium) at 30 °C 48–72 h. A. castellanii cultured alone in 16% glucose was taken as negative control. After this incubation, 0.1% sodium dodecyl sulfate (SDS) was added to each well and agitated the plate for 20 min. The SDS resistant cysts were enumerated using a haemocytometer and data was recoded.

The text below walks through data of publication PMC9494960, “Antiamoebic Activity of Imidazothiazole Derivatives against Opportunistic Pathogen Acanthamoeba castellanii” (Antibiotics, 2022).

Take `O=C(NCCNc1nccc(-c2c(-c3ccc(F)cc3)nc3sccn23)n1)c1cc(N2CCOCC2)cc(C(F)(F)F)c1` [Compound 1k]: in series [1], the “Amoebicidal Activity Inhibition % ± SEM” value was 16.58% ± 6.08% and the “amoebicidal effects / antiamoebic activity against A. castellanii” value is recorded as “did not show promising antiamoebic activity”.

`COc1cccc(NC(=O)NCCNc2nccc(-c3c(-c4ccc(F)cc4)nc4sccn34)n2)c1` [Compound 1a]: in series [1], the “Amoebicidal Activity Inhibition % ± SEM” value was 7.70% ± 3.57%. For the same compound, the “cytotoxicity against HeLa cells” value with HeLa cells is reported as 35%.

What is called IC50 is the point on the concentration scale where inhibition reaches its midpoint. On to `O=C(NCCNc1nccc(-c2c(-c3cccc(O)c3)nc3sccn23)n1)c1ccccc1` [Compound 1x], for which, in series [1], the “Amoebicidal Activity Inhibition % ± SEM” value was 48.02% ± 3.69% and the IC50 is 54 µM. Also, the EC90 in the series on human cell lines came out at 102 µM.

As to `O=C(NCCNc1nccc(-c2c(-c3cccc(O)c3)nc3sccn23)n1)c1ccccc1O` [Compound 1y], in series [1], the “Amoebicidal Activity Inhibition % ± SEM” value was 12.50% ± 4.68% and the “amoebicidal effects / antiamoebic activity against A. castellanii” value is “did not show promising antiamoebic activity”.

As to `O=C(NCCNc1nccc(-c2c(-c3ccc(F)cc3)nc3sccn23)n1)c1ccccc1O` [Compound 1g], the “Amoebicidal Activity Inhibition % ± SEM” value in series [1] is 42.20% ± 3.29%.

The term CC50 denotes the concentration at which the toxic effect on the cells reaches its halfway point. Read a low CC50 as harm at low concentration. Turning to `O=C(NCCNc1nccc(-c2c(-c3cccc(O)c3)nc3sccn23)n1)Nc1cccc(C(F)(F)F)c1` [Compound 1v], in series [1], the “Amoebicidal Activity Inhibition % ± SEM” value was 44.86% ± 2.98% and half-maximal inhibition (IC50) required 60 µM. Also, in the series with human cell lines, the CC50 was 222 µM and the EC90 was 5.36 µM.

With `O=C(NCCNc1nccc(-c2c(-c3ccc(F)cc3)nc3sccn23)n1)Nc1cccc(C(F)(F)F)c1` [Compound 1b], the “Amoebicidal Activity Inhibition % ± SEM” value in series [1] is given as 12.86% ± 5.93%.

For `O=C(NCCNc1nccc(-c2c(-c3cccc(O)c3)nc3sccn23)n1)c1cc(C(F)(F)F)cc(C(F)(F)F)c1` [Compound 1za], in series [1], the “Amoebicidal Activity Inhibition % ± SEM” value is given as 15.71% ± 6.61% and the “amoebicidal effects / antiamoebic activity against A. castellanii” value is recorded as “did not show promising antiamoebic activity”.

In the case of `O=C(NCCNc1nccc(-c2c(-c3cccc(O)c3)nc3sccn23)n1)c1cc(N2CCOCC2)cc(C(F)(F)F)c1` [Compound 1zc], in series [1], the “Amoebicidal Activity Inhibition % ± SEM” value is reported as 14.79% ± 3.19% and the “amoebicidal effects / antiamoebic activity against A. castellanii” value is listed as “did not show promising antiamoebic activity”.

In the case of `O=C(NCCNc1nccc(-c2c(-c3ccc(F)cc3)nc3sccn23)n1)c1ccc2c(c1)OCCO2` [Compound 1f], the “Amoebicidal Activity Inhibition % ± SEM” value in series [1] was 40.50% ± 4.84%.

Take `O=C(NCCNc1nccc(-c2c(-c3cccc(O)c3)nc3sccn23)n1)c1cccc(C(F)(F)F)c1` [Compound 1z]: in series [2], the “inhibition of amoebae binding to human cells” value (“inhibition of amoebae binding” for short) stood at 42%. Moreover, in series [1], the “Amoebicidal Activity Inhibition % ± SEM” value is reported as 52.53% ± 1.67% and 44.8 µM corresponded to half-maximal inhibition (IC50). Also, the “encystation blocked (trophozoites prevented from converting into cysts)” value in series [3] was 60%. In the series with human cell lines, the CC50 worked out at 412 µM and the EC90 worked out at 80.9 µM.

In the case of `COc1ccc(C(=O)NCCNc2nccc(-c3c(-c4ccc(F)cc4)nc4sccn34)n2)cc1OC` [Compound 1e], the “inhibition of amoebae binding” value in series [2] is given as 40%. Further, in series [1], the “Amoebicidal Activity Inhibition % ± SEM” value is 44.50% ± 1.79%.

For `COc1cccc(-c2nc3sccn3c2-c2ccnc(NCCNC(=O)c3cc(C(F)(F)F)cc(C(F)(F)F)c3)n2)c1` [Compound 1r], in series [1], the “Amoebicidal Activity Inhibition % ± SEM” value was 44.91% ± 8.42% and the IC50 worked out at 64.7 µM. Moreover, in the series on human cell lines, the CC50 worked out at 183 µM and the EC90 came to 33.9 µM.

Take `COc1cccc(-c2nc3sccn3c2-c2ccnc(NCCNC(=O)c3ccc(N4CCOCC4)c(C(F)(F)F)c3)n2)c1` [Compound 1s]: in series [1], the “Amoebicidal Activity Inhibition % ± SEM” value was 39.10% ± 2.31%.

Turning to `COc1cccc(-c2nc3sccn3c2-c2ccnc(NCCNC(=O)c3cccc(C(F)(F)F)c3)n2)c1` [Compound 1q], in series [1], the “Amoebicidal Activity Inhibition % ± SEM” value was 52.41% ± 5.31% and the midpoint of inhibition, the IC50, lay at 47.7 µM. Also, the “cytotoxicity against HeLa cells” value in the series with HeLa cells is reported as 38%. In the series on human cell lines, the half-maximal cytotoxic concentration (CC50) turned out to be 584 µM and the EC90 came to 30.6 µM.

Take `Cc1ccc(C(=O)NCCNc2nccc(-c3c(-c4ccc(F)cc4)nc4sccn34)n2)cc1` [Compound 1d]: the “Amoebicidal Activity Inhibition % ± SEM” value in series [1] is 39.50% ± 1.53%.

Take `O=C(NCCNc1nccc(-c2c(-c3ccc(F)cc3)nc3sccn23)n1)c1cccc(C(F)(F)F)c1` [Compound 1h]: the “Amoebicidal Activity Inhibition % ± SEM” value in series [1] is recorded as 38.16% ± 3.74%.

In the case of `O=C(NCCNc1nccc(-c2c(-c3ccc(F)cc3)nc3sccn23)n1)Nc1cc(C(F)(F)F)cc(C(F)(F)F)c1` [Compound 1c], the “Amoebicidal Activity Inhibition % ± SEM” value in series [1] was 17.28% ± 1.88%.

On to `COc1cccc(-c2nc3sccn3c2-c2ccnc(NCCNC(=O)c3ccccc3O)n2)c1` [Compound 1p], for which the “Amoebicidal Activity Inhibition % ± SEM” value in series [1] is 36.42% ± 5.43%.

As to `Cc1cn(-c2cc(C(=O)NCCNc3nccc(-c4c(-c5ccc(F)cc5)nc5sccn45)n3)cc(C(F)(F)F)c2)cn1` [Compound 1j], the “Amoebicidal Activity Inhibition % ± SEM” value in series [1] is listed as 42.34% ± 3.81%.

For the compound `O=C(NCCNc1nccc(-c2c(-c3cccc(O)c3)nc3sccn23)n1)Nc1ccccc1` [Compound 1u], in series [1], the “Amoebicidal Activity Inhibition % ± SEM” value was 12.66% ± 5.04% and the “amoebicidal effects / antiamoebic activity against A. castellanii” value is on record as “did not show promising antiamoebic activity”.

For `O=C(NCCNc1nccc(-c2c(-c3cccc(O)c3)nc3sccn23)n1)Nc1cc(C(F)(F)F)cc(C(F)(F)F)c1` [Compound 1w], in series [1], the “Amoebicidal Activity Inhibition % ± SEM” value is recorded as 50.25% ± 4.67% and half-maximal inhibition (IC50) required 46.3 µM. Besides, in the series on human cell lines, the CC50 was determined as 304 µM and the EC90 came to 36.1 µM.

In the case of `COc1cccc(-c2nc3sccn3c2-c2ccnc(NCCNC(=O)Nc3cc(C(F)(F)F)cc(C(F)(F)F)c3)n2)c1` [Compound 1n], in series [1], the “Amoebicidal Activity Inhibition % ± SEM” value was 51.05% ± 2.36% and the IC50 was 47.5 µM. Moreover, in the series with human cell lines, the CC50 worked out at 648 µM and the EC90 came to 16.4 µM.

Regarding `COc1cccc(-c2nc3sccn3c2-c2ccnc(NCCNC(=O)c3ccccc3)n2)c1` [Compound 1o], in series [1], the “Amoebicidal Activity Inhibition % ± SEM” value is reported as 11.78% ± 11.34% and the “amoebicidal effects / antiamoebic activity against A. castellanii” value was “did not show promising antiamoebic activity”.

`COc1cccc(-c2nc3sccn3c2-c2ccnc(NCCNC(=O)c3cc(N4CCOCC4)cc(C(F)(F)F)c3)n2)c1` [Compound 1t]: in series [1], the “Amoebicidal Activity Inhibition % ± SEM” value was 17.46% ± 3.75% and the “amoebicidal effects / antiamoebic activity against A. castellanii” value was “did not show promising antiamoebic activity”.

Take `CC(C)(C)OC(=O)N1CCN(CCNc2nccc(-c3c(-c4ccc(F)cc4)nc4sccn34)n2)S1(=O)=O` [Compound 1l]: the “inhibition of amoebae binding” value in series [2] is listed as 42%. In addition, in series [1], the “Amoebicidal Activity Inhibition % ± SEM” value is given as 47.41% ± 1.67% and the IC50 turned out to be 59.9 µM.
